Test system: borderline diabetic patients
Assay: glucose tolerance test after administration of corosolic acid or placebo, blood insulin level (IRI) assayed
Type: in vivo, human
Details: 31 borderline diabetic patients, 10 mg oral, 75 g oral glucose load, 30 minutes after start of glucose tolerance test
Description: The following test was conducted to confirm that corosolic acid has an early insulin secretion stimulating effect. A glucose tolerance test was performed after administration of corosolic acid or a placebo, in a double-blind crossover manner, and the blood insulin level (IRI: immunoreactive insulin) was assayed. Significant change in the IRI was judged by Student's t-test with the significance level (p value) as 0.05.
First, 31 borderline diabetic patients as test subjects were orally administered corosolic acid (10 mg, ≧99% purity) or a placebo, and blood was sampled immediately thereafter with the blood insulin level at that time designated as the value at 0 minutes. Immediately after blood sampling, 75 g of glucose was orally administered to each test subject to start a glucose tolerance test, and blood was sampled after periods of 30 minutes, 60 minutes, 90 minutes, 120 minutes and 180 minutes for measurement of the blood insulin level.
FIG. 1 is a graph showing changes in the blood insulin levels during the glucose tolerance test. The horizontal axis represents time (minutes) after start of the glucose tolerance test, and the vertical axis represents IRI (μU/mL). In the graph, (a) is a case with administration of corosolic acid and (b) is a case with administration of the placebo.

Question: `C[C@H]1[C@H](C)CC[C@]2(C(=O)O)CC[C@]3(C)C(=CC[C@@H]4[C@@]5(C)C[C@@H](O)[C@H](O)C(C)(C)[C@@H]5CC[C@]43C)[C@H]12` [corosolic acid] was tested. Which “blood insulin level (IRI) compared to placebo” value did it give?
Answer: significant increase in blood insulin level

Same assay, conditions: 31 borderline diabetic patients, 10 mg oral, 75 g oral glucose load, 120 minutes after start of glucose tolerance test

Question: Which “blood insulin level (IRI) compared to placebo” value does the source give for `C[C@H]1[C@H](C)CC[C@]2(C(=O)O)CC[C@]3(C)C(=CC[C@@H]4[C@@]5(C)C[C@@H](O)[C@H](O)C(C)(C)[C@@H]5CC[C@]43C)[C@H]12` [corosolic acid] here?
Answer: significant drop in blood insulin level

Test system: KK-Ay mice
Assay: blood glucose level in KK-Ay mice (genetic type II diabetes model) after oral administration
Type: in vivo
Details: 10 mg/kg oral, blood sampled before and at 4 and 7 hours after administration (tormentic acid: before and 4 hours), n=4, p 0.05
Description: KK-Ay mice (CLEA Japan, Inc.), a genetic type II diabetes model, were used as the test animals. […] The animal feeding conditions were at constant temperature (22±2° C.) throughout the test period, and the light-dark period was 12 hours (light period: 9:00 am-9:00 pm). The feed (CE-2, CLEA Japan, Inc.) and water (tap water) were made freely available. The test substance was forcefully administered to the KK-Ay mice using a glass syringe and oral probe. The dose of each test substance was 10 mg/kg. Blood was sampled from the ocular fundus, immediately prior to and at 4 hours and 7 hours after the administration (for tormentic acid, immediately prior to and at 4 hours after the administration). The blood glucose was measured with a Glucose CII Test Wako (Wako Pure Chemical Industries Co., Ltd.).
The test substances used for this example were: corosolic acid (isolated from banaba leaves), maslinic acid (isolated from banaba leaves), asiatic acid (purchased from LKT Laboratories), 2α,19α-dihydroxy-3-oxo-urs-12-en-28-oic acid (isolated from loquat callus), ursolic acid (purchased from LKT Laboratories), oleanolic acid (purchased from LKT Laboratories), α-amyrin (purchased from LKT Laboratories), β-amyrin (purchased from LKT Laboratories), hederagenin (purchased from LKT Laboratories), 18β-glycyrrhetinic acid (purchased from Wako Pure Chemical Industries Co., Ltd.), sapindoside B (isolated from soapberry), and tormentic acid (isolated from loquat callus).
The blood glucose levels were measured using four KK-Ay mice for each test substance. The measurement results were recorded as mean±SE. Significant change in the blood glucose level was judged by Student's t-test with the significance level (p value) as 0.05.

Question: Which “hypoglycemic effect (change in blood glucose level)” value does the source give for `C[C@@H]1CC[C@]2(C(=O)O)CC[C@]3(C)C(=CC[C@@H]4[C@@]5(C)C[C@@H](O)C(=O)C(C)(C)[C@@H]5CC[C@]43C)[C@@H]2[C@]1(C)O` [2α,19α-dihydroxy-3-oxo-urs-12-en-28-oic acid] here?
Answer: significant hypoglycemic effects

Question: For `CC1(C)[C@@H](O)CC[C@]2(C)[C@H]3C(=O)C=C4[C@@H]5C[C@@](C)(C(=O)O)CC[C@]5(C)CC[C@@]4(C)[C@]3(C)CC[C@@H]12` [18β-glycyrrhetinic acid], which “hypoglycemic effect (change in blood glucose level)” value is on record?
Answer: no definite hypoglycemic effect

Question: With `CC1(C)CC[C@]2(C(=O)O)CC[C@]3(C)C(=CC[C@@H]4[C@@]5(C)C[C@@H](O)[C@H](O)C(C)(C)[C@@H]5CC[C@]43C)[C@@H]2C1` [Maslinic acid, maslinic acid] as the molecule, how does the “hypoglycemic effect (change in blood glucose level)” value read?
Answer: did not exhibit a significant hypoglycemic effect but did exhibit a tendency toward reducing blood glucose level

Question: With `C[C@H]1[C@H](C)CC[C@]2(C(=O)O)CC[C@]3(C)C(=CC[C@@H]4[C@@]5(C)C[C@@H](O)[C@H](O)[C@@](C)(CO)[C@@H]5CC[C@]43C)[C@H]12` [asiatic acid] as the molecule, how does the “hypoglycemic effect (change in blood glucose level)” value read?
Answer: significant hypoglycemic effects

Question: `C[C@H]1[C@H](C)CC[C@]2(C(=O)O)CC[C@]3(C)C(=CC[C@@H]4[C@@]5(C)C[C@@H](O)[C@H](O)C(C)(C)[C@@H]5CC[C@]43C)[C@H]12` [corosolic acid] was tested. Which “hypoglycemic effect (change in blood glucose level)” value did it give?
Answer: significant hypoglycemic effects

Question: With `CC1(C)CC[C@]2(C(=O)O)CC[C@]3(C)C(=CC[C@@H]4[C@@]5(C)CC[C@H](O)[C@@](C)(CO)[C@@H]5CC[C@]43C)[C@@H]2C1` [hederagenin] as the molecule, how does the “hypoglycemic effect (change in blood glucose level)” value read?
Answer: no definite hypoglycemic effect

Question: `CC1(C)CC[C@]2(C(=O)O)CC[C@]3(C)C(=CC[C@@H]4[C@@]5(C)CC[C@H](O)C(C)(C)[C@@H]5CC[C@]43C)[C@@H]2C1` [oleanolic acid] was tested. Which “hypoglycemic effect (change in blood glucose level)” value did it give?
Answer: no definite hypoglycemic effect

Question: Which “hypoglycemic effect (change in blood glucose level)” value does the source give for `C[C@@H]1O[C@@H](O[C@H]2[C@H](O[C@H]3CC[C@@]4(C)[C@@H](CC[C@]5(C)[C@@H]4CC=C4[C@@H]6CC(C)(C)CC[C@]6(C(=O)O)CC[C@]45C)[C@]3(C)CO)OC[C@H](O)[C@@H]2O)[C@H](O)[C@H](O[C@@H]2OC[C@@H](O)[C@H](O)[C@H]2O)[C@H]1O` [sapindoside B] here?
Answer: no definite hypoglycemic effect

Question: With `C[C@@H]1CC[C@]2(C(=O)O)CC[C@]3(C)C(=CC[C@@H]4[C@@]5(C)C[C@@H](O)[C@H](O)C(C)(C)[C@@H]5CC[C@]43C)[C@@H]2[C@]1(C)O` [tormentic acid] as the molecule, how does the “hypoglycemic effect (change in blood glucose level)” value read?
Answer: significant hypoglycemic effects

Question: With `C[C@H]1[C@H](C)CC[C@]2(C(=O)O)CC[C@]3(C)C(=CC[C@@H]4[C@@]5(C)CC[C@H](O)C(C)(C)[C@@H]5CC[C@]43C)[C@H]12` [ursolic acid] as the molecule, how does the “hypoglycemic effect (change in blood glucose level)” value read?
Answer: no definite hypoglycemic effect

Question: For `C[C@H]1[C@H](C)CC[C@]2(C)CC[C@]3(C)C(=CC[C@@H]4[C@@]5(C)CC[C@H](O)C(C)(C)[C@@H]5CC[C@]43C)[C@H]12` [α-amyrin], which “hypoglycemic effect (change in blood glucose level)” value is on record?
Answer: no definite hypoglycemic effect

Question: For `CC1(C)CC[C@]2(C)CC[C@]3(C)C(=CC[C@@H]4[C@@]5(C)CC[C@H](O)C(C)(C)[C@@H]5CC[C@]43C)[C@@H]2C1` [β-amyrin], which “hypoglycemic effect (change in blood glucose level)” value is on record?
Answer: no definite hypoglycemic effect

Source: US20060235078A1, “Insulin secretion potentiator” (Use-Techno Corporation, priority 2003, published 2006)
